Experimental data: patent publication US8178091B2, “Compositions and methods for the treatment of respiratory disorders” (University of Washington, priority 2007, dated 2012)
Entries after “also recorded” stand apart in the source; their conditions may differ.

Test system: primary mouse lung fibroblasts
Experiment: apoptosis assay (Cell Death Detection ELISA-plus), mouse lung fibroblasts
Type: cell-based, C57BL6 mice
Conditions: serum-starved, 24 hours
Procedure: A. Quantification of TUNEL IHC by number of TUNEL positive cells/total # of cells. Average ±SD of two mice/condition and at least 500 cells analyzed per condition. […] Mouse lung fibroblasts were serum starved overnight and then incubated with indicated concentration of IGF-1R antibody, A12. Apoptosis was measured by Cell Death ELISA-plus (Roche Applied Science). All experiments were done in triplicate and repeated at least twice. Apoptosis index is defined as ratio of experimental condition OD405nm/control (media alone) OD405nm. The data was analyzed using one-way ANOVA with Tukey's HSD post hoc test, and statistical significance (*) was determined at p<0.05.
For apoptosis assays, primary mouse lung fibroblasts were plated in 96-well plates (20,000 cells/well) overnight and serum-starved for 24 hours. Functional blocking antibody to the type 1 IGF receptor (A12) was added to media at indicated concentration for 24 hours. At the end of the experiment, plates were centrifuged at 200×g for 10 minutes to prevent detached cells from being aspirated, and apoptosis was measured using the Cell Death Detection ELISA-plus System (Roche Applied Science, Penzberg, Germany), which detects cytosolic histone-complexed DNA fragments. All experiments were done in triplicate and repeated at least twice. Apoptosis index was defined as ratio of experimental condition OD405nm/control (media alone) OD405nm.

Substance: A12: Function blocking antibody to the human type 1 IGF receptor, gift from ImClone Systems
- apoptosis of primary mouse lung fibroblasts: dose-dependent increase in apoptosis; also recorded: Increased apoptosis
- apoptosis of primary mouse lung fibroblasts (listed as IGF-1R antibody): increased apoptosis
